Data taken from US11585779B2, “Biosensor and method of using the same for evaluation of antioxidant capacity” (Nanjing Agricultural University, priority 2017, dated 2023).

Test system: macrophage RAW264.7
Test: Evaluation of antioxidant capacity with macrophage RAW264.7 biosensor (PMA stimulation, differential pulse voltammetry)
Type: cell-based
Details: 0.6% solution in absolute ethanol; 100 ng/mL PMA, 10 min; 0.1 M PBS
Description: The electrochemical experiments in 3) can be a differential pulse voltammetry (DPV), and the DPV conditions can be as follows: scanning range: -0.2 to 0.6 V, amplitude: 0.05 V.
The relative antioxidant capacity value in 5) can be calculated by the following equation:
[formula] where RAC is the relative antioxidant capacity value, I0 is the peak current obtained in the presence of 100 ng/mL PMA, Is is the peak current in the presence of the test sample, and I is the peak current in the absence of PMA.
immersing a third biosensor in Tyrode's buffer at 37° C. for 10 min, washing the third biosensor with PBS buffer for 3 times, connecting the third biosensor to a third electrochemical workstation, and conducting an electrochemical experiment of the third biosensor in a solution containing 1.0 mM Fe(CN)6^3−, 1.0 mM Fe(CN)6^4− or 0.1 M PBS, recording the current signal, reading the peak current and marking as I.
In the following examples, the differential pulse voltammetry is selected as the electrochemical experiment method.
Positive control: a first biosensor was immersed in Tyrode's buffer at 37° C. (preparation of Tyrode's solution: 1000 mL Tyrode's solution: NaCl 8.0 g, 10% KCl 2.0 mL (0.2 g), 10% MgSO4.7H2O 2.6 mL (0.26 g), 5% NaH2PO4.2H2O 1.3 mL (0.065 g), NaHCO3 1.0 g, 1 M CaCl2 1.8 mL (0.2 g), glucose 1.0 g), and PMA was then added to a concentration of 100 ng/mL. 10 min later, the first biosensor was washed with PBS buffer for 3 times (phosphate buffered saline) at pH=7.4, and then was connected to the electrochemical workstation. The first biosensor was electrochemically detected in a solution containing 1.0 mM Fe(CN)6^3−, and the current signal was recorded and the peak current was read as I0=84.6 μA.
Blank control: a third biosensor was immersed in Tyrode's buffer at 37° C. […] The […] was electrochemically detected in a solution containing 1.0 mM Fe(CN)6^3−, and the current signal was recorded and the peak current was read as I=21.5 μA. […]
3) Electrochemical experiment: the second biosensor was used for electrochemical experiment in a PBS solution containing 1.0 mM Fe(CN)6^3−. Subsequently, the current signal and the peak current ls1 were recorded and read, respectively. […]
3) Electrochemical experiment: the biosensor IV was used for electrochemical experiment in a solution containing 1.0 mM Fe(CN)6^4−. Subsequently, the current signal was recorded and the peak current Is2 was read, where Is2=24.7 μA. […]
3) Electrochemical experiment: the biosensor was used for electrochemical experiment in a solution containing 0.1 M (mol/L) PBS. Subsequently, the current signal was recorded and the peak current Is3 was read, where Is3=26.5 μA. […]

SMILES | peak current Is4 [μA] | peak current Is3 [μA] | relative antioxidant value (RAC3) [%] | relative antioxidant value (RAC4) [%]
O=C1O[C@H]([C@@H](O)CO)C(O)=C1O [VC, Vitamin C] | 25.3 |  |  | 
Cc1c(C)c2c(c(C)c1O)CC[C@@](C)(CCC[C@H](C)CCC[C@H](C)CCCC(C)C)O2 [VE, Vitamin E] |  | 26.5 | 92.2 | 94.2
